The subject of series [1] is Caco-2 human epithelial cells. The following applies: for absorption of atorvastatin: microtablets of the three basic salts placed on the mono layers, compared with each other, Figure 1.
Description: The essence of the method is, that microtablets are pressed from the drug substances to be examined without adding auxiliaries. The microtablets are made under the same conditions with the same pressing force, therefor the rate of penetration through cell-layer is determined by the intrinsic features of the examined substances.
In the model the absorption of atorvastatin through human epithelial (Caco-2) mono cell-layer was measured in such a way, that the microtablets prepared from the test compounds were placed on the mono cell-layers in the vessels containing physiological saline, then the time dependent amount of the test substance, which passed through the mono cell-layer was determined from the saline solution of the other side of the mono cell-layer by chromatography.
During the experiments 4 µmol base equivalent amounts were placed on the mono cell-layers from the microtablets.
During the experiments the reference compounds were placed on the mono cell-layer (luminal side, which in vivo equals the inner side of the intestine) in solution, the amount of the test substance, which passed through the mono cell-layer (abluminal side, which in vivo equals the blood circulation) was determined by chromatography, then the absorption coefficient characteristic for the absorption of the compounds was calculated (the English abbreviation used in the literature: Papp value).
At the end of the absorption experiments the intactness of the epithelial mono cell-layers was microscopically checked after tainting with toluidine blue. The amount of the test and reference compounds in the samples was determined by HPLC.
Series [2] in a line: Specific surface of the salts. Type of series: physicochemical.
The conditions of series [3]: in vivo; cited from earlier work.

Counter-ions that a name gives are not always drawn.

We go through four molecules from patent EP1490333B1, “NEW ATORVASTATIN SALTS AND PHARMACEUTICAL COMPOSITIONS CONTAINING THEM” (Richter Gedeon Nyrt., priority 2002, dated 2003).

For `CC(C)c1c(C(=O)Nc2ccccc2)c(-c2ccccc2)c(-c2ccc(F)cc2)n1CCC(O)CC(O)CC(=O)O.N=C(N)NCCCC(N)C(=O)O` [L-arginine salt, Atorvastatin L-arginine salt], the absorption of atorvastatin entry in series [1] is recorded as “no difference”.

Regarding `CC(C)c1c(C(=O)Nc2ccccc2)c(-c2ccccc2)c(-c2ccc(F)cc2)n1CC[C@@H](O)C[C@@H](O)CC(=O)O.NCCCC[C@H](N)C(=O)O` [atorvastatin L-lysine salt], the “absorption (penetration) of atorvastatin in Caco-2 model” value in series [1] (compared with polymorph I (crystal form I) of hemi-calcium salt) was “significantly better”. For the same molecule, the absorption of atorvastatin entry in series [1] is recorded as “no difference”. Also, in series [1] (microtablets, compared with microtablets of polymorph I of hemi-calcium salt, Figure 2), the “appearance of atorvastatin on the abluminal side of the mono cell-layers” value was “significantly faster”. In series [2], the specific surface is given as 1.1 m^2/g.

With `CC(C)c1c(C(=O)Nc2ccccc2)c(-c2ccccc2)c(-c2ccc(F)cc2)n1CC[C@@H](O)C[C@@H](O)CC(=O)O` [atorvastatin hemi-calcium salt, (3R,5R)-7-[3-phenyl-4-[(phenylamino)carbonyl]-2-(4-fluorophenyl)-5-(1-methyl-ethyl)-pyrrol-1-yl]-3,5-dihydroxy-heptanoic acid], in series [3], the “part of the applied dose absorbed” value is reported as “about 30%”.

For the molecule `CC(C)c1c(C(=O)Nc2ccccc2)c(-c2ccccc2)c(-c2ccc(F)cc2)n1CC[C@@H](O)C[C@@H](O)CC(=O)O` [atorvastatin hemi-calcium salt, reference compound], the specific surface in series [2] is on record as 8.0 m^2/g.
